According to patent US8580764B2, “Combinational compositions and methods for treatment of cancer” (ArQule, Inc., priority 2010, dated 2013):
Read-outs that look alike come from different tables or passages of the source.

Legend:
[1] = target: T1, c-Met (Homo sapiens, UniProt P08581); details: c-Met expressing cancer cell lines; cited from earlier work
T1 construct: Exposure of c-Met expressing cancer cell lines; endogenous in cells

[2] = test system: human tumors; details: multiple mouse xenograft efficacy studies; cited from earlier work
[3] = test system: cancer cells; experiment: Cell cycle analysis of dosing regimen A (FIG. 8); format: cell-based; details: dosing regimen A of FIG. 3
Protocol: (§1) Cells were plated on day 0.

[4] = test system: cancer cells; details: cited from earlier work
[5] = test system: cell cycle check point; experiment: Activation of cell cycle check point during dosing regimen A (FIG. 9); format: cell-based; details: dosing regimen A of FIG. 3
Protocol: as §1

T1 sequence (P08581 25-1390): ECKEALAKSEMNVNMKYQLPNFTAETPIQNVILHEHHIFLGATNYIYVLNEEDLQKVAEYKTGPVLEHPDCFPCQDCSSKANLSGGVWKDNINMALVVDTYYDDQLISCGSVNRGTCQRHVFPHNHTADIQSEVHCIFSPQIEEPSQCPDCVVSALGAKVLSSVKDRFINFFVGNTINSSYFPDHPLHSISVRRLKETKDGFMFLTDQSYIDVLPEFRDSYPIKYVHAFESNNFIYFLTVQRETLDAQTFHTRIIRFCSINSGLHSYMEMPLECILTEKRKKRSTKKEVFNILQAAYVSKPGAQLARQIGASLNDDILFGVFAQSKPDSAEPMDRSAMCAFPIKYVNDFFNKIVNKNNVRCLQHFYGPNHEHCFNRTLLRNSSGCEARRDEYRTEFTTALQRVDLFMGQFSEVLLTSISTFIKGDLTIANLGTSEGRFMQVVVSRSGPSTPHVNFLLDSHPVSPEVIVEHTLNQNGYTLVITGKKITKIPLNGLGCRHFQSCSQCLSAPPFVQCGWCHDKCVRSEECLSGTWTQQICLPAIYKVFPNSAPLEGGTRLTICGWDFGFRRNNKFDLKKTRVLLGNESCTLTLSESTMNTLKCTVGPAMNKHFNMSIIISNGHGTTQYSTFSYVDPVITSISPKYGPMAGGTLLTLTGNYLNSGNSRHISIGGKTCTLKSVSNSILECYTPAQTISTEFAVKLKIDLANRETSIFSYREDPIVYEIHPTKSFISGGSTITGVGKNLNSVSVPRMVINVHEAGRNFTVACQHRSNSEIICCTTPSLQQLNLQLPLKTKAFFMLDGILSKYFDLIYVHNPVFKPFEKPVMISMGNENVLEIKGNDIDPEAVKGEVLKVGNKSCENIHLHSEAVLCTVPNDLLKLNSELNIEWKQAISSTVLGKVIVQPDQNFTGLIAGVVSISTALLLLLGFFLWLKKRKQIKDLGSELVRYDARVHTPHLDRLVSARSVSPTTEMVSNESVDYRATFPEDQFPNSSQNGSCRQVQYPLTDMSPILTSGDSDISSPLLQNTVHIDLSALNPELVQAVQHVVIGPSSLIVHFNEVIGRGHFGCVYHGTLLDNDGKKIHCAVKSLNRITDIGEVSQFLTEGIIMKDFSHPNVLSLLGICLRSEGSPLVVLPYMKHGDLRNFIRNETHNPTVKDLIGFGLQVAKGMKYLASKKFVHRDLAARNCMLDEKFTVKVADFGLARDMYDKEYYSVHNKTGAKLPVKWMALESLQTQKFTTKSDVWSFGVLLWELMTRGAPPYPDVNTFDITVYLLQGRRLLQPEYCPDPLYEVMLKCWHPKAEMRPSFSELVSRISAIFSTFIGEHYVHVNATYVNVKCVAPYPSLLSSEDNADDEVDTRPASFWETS

O=C1NC(=O)[C@@H](c2cn3c4c(cccc24)CCC3)[C@@H]1c1c[nH]c2ccccc12 [Agent A, (−)-trans-3-(5,6-dihydro-4H-pyrrolo[3,2,1-ij]quinolin-1-yl)-4-(1H-indol-3-yl)pyrrolidine-2,5-dione]
phospho-c-Met levels and cell death [1]: decrease in phospho-c-Met levels with eventual apoptotic cell death | growth of human tumors [2]: inhibited the growth of human tumors | cell cycle arrest [3]: G2/M arrest

Nc1ccn([C@@H]2O[C@H](CO)[C@@H](O)C2(F)F)c(=O)n1 [gemcitabine]
cell cycle arrest [4]: arrest cancer cells in G1/S phase | activation of cell cycle check point [5]: activation of cell cycle check point | cell cycle arrest [3]: S-phase arrest
